Assay results published in BindingDB's records for patent US9707233 (Incyte Holdings Corporation, 2017).

Target: T1, Phosphatidylinositol 4,5-bisphosphate 3-kinase catalytic subunit delta isoform (Homo sapiens, UniProt O00329)
T1 sequence (O00329 whole entry): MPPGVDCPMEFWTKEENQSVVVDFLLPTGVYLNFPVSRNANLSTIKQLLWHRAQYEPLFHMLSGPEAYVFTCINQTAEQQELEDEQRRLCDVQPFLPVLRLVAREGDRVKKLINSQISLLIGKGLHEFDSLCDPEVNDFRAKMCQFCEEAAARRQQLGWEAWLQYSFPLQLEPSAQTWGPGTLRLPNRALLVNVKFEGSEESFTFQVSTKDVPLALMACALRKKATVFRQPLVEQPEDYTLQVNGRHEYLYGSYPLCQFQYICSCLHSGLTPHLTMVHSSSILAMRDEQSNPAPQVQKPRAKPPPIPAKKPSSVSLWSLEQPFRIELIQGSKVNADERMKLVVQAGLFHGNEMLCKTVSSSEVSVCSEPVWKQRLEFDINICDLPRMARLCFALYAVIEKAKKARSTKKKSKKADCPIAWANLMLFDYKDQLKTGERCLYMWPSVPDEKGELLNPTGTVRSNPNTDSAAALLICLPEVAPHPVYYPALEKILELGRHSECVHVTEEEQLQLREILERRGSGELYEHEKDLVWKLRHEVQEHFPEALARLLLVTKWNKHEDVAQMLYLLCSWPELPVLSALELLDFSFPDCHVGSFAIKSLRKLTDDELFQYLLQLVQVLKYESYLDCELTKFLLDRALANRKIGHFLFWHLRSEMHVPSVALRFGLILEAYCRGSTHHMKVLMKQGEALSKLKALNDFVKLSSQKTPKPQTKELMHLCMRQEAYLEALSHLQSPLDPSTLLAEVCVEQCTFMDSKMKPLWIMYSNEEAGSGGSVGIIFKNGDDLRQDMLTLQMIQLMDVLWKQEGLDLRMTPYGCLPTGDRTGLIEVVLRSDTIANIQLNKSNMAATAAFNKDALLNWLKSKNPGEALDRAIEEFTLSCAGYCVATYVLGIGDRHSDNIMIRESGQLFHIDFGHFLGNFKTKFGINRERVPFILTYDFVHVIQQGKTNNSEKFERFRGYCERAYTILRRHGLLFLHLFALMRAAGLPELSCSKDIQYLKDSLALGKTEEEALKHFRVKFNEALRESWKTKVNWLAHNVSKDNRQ
Experiment: A2 PI3Kdelta Scintillation Proximity Assay
Conditions: pH 6.7; 25 °C
Description: PI3K isoforms α, β, δ and γ are purchased from Millipore (Bedford, Mass.). […] Inhibitors are first diluted serially in DMSO and added to the plate wells before the addition of other reaction components. The final concentration of DMSO in the assay is 0.5%. The PI3K assays are carried out at room temperature in 20 mM MOPS, pH 6.7, 10 mM MgCl2, 5 mM DTT and CHAPS 0.03%. The reaction mixture is prepared containing 50 μM PIP2, kinase and varying concentration of inhibitors. […] Reactions are incubated for 180 minutes and terminated by the addition of 100 μL of 1 M potassium phosphate pH 8.0, 30 mM EDTA quench buffer. A 100 μL aliquot of the reaction solution are then transferred to 96-well Millipore MultiScreen IP 0.45 μm PVDF filter plate (The filter plate is prewetted with 200 μL 100% ethanol, distilled water, and 1 M potassium phosphate pH 8.0, respectively). […] After drying by aspiration and blotting, the plate is air dried in an incubator at 37° C. overnight. Packard TopCount adapter (Millipore) is then attached to the plate followed with addition of 120 μL Microscint 20 scintillation cocktail (Perkin Elmer) in each well. After the plate sealing, the radioactivity of the product is determined by scintillation counting on Topcount (Perkin-Elmer). […]

Q: Which IC50 does the source give for `CCOc1c(C(C)n2nc(C)c3c(N)ncnc32)cc(Cl)c(C#N)c1C1CN(C(C)(C)C(=O)N(C)C)C1` (single isomer, unassigned) [US9707233, 241] here?
A: < 0.01 µM

Q: With `COc1c(C(C)n2nc(C)c3c(N)ncnc32)cc(Cl)c(C)c1C1CN(CC(F)F)C1` (single isomer, unassigned) [US9707233, 112] as the compound, how does the IC50 read?
A: < 0.01 µM
